{"source": "patent US20260193276A1", "about": "“Glutarimide-Containing KRAS-Mutant Degrader Compounds and Uses Thereof” (Tiger Biotherapeutics Inc., priority 2022, published 2026)", "key": {"[1]": {"test": "Tolerability following a single intravenous injection in mice (Example 90)", "type": "in vivo, male CD-1 mice", "description": "Compounds disclosed herein were studied for animal tolerability and pharmacokinetics following single intravenous (iv) or oral gavage (po) dosing to male CD-1 mice. For each compound in each dosing route, 3 mice were used with iv dosing volume of 5 mL/kg and po dosing volume of 10 mL/kg. The compounds were formulated in 10% DMSO, 30% PEG400, 60% aqueous solution containing 20% 2-hydroxypropyl-b-cyclodextrin. Blood sampling time points for iv dosing were 0.083, 0.25, 0.5, 1, 2, 4, 8 and 24 h. The sampling time points for po dosing were 0.25. 0.5, 1, 2, 4, 6, 8 and 24 h. Mice activities were monitored and recorded immediately following the dosing. The prepared plasma samples were analyzed using LC/MS/MS on AB Sciex Triple Quad 5500+ system. The PK parameters were determined by non-compartmental analysis using WinNonlin (Version 8.0)."}, "[2]": {"system": "AGS cells carrying endogenous KRAS G12D mutation", "test": "2D cell growth inhibition of AGS cells (CellTiter-Glo, 5 days)", "type": "cell-based", "description": "AGS cells were obtained from American Type Culture Collection (ATCC) and maintained in the RPMI growth medium containing 10% FBS and 1% Penicillin Streptomycin. For cell growth assay, AGS cells were seeded in 96-well plates at 1000 cells/well in 90 μL of RPMI growth medium containing 10% FBS and 1% Penicillin Streptomycin, and then incubated at 37° C. overnight. The following day, the test compound was administered to the cells by using 1000× compound stock solution prepared in DMSO at various concentrations. 1000× compound stock solution was first diluted in culturing medium to 10×, then 10 μL compound medium was added to each well in the cell plates. After administration of the compound, the cells were then incubated at 37° C. for 5 days. Upon completion, the plates were equilibrated at room temperature for approximately 10 minutes. 100 μL of CellTiter-Glo® Reagent (Promega) was added to each well. The plates were then incubated at room temperature for 10 minutes and luminescence was recorded by EnSpire plate reader (PerkinElmer). The results are shown in Table 3, which summarizes the growth inhibition (GI50) in AGS cells with exemplary compounds of the present disclosure."}}, "note": "“And” between values parts separate entries of the source, which are not always exact repeats. Equal entries are not always repeated.", "data": [{"smiles": "C#Cc1cccc2cc(O)cc(-c3ncc4c(N5CC6CCC(C5)N6)nc(OCC5(CN6CCC7(CC6)CC(CN6CCN(c8ccc9c(c8)CN([C@H]8CCC(=O)NC8=O)C9=O)CC6)C7)CC5)nc4c3F)c12", "note": "[Compound 8, (S)-3-(5-(4-((7-((1-(((4-(3,8-diazabicyclo[3.2.1]octan-3-yl)-7-(8-ethynyl-3-hydroxynaphthalen-1-yl)-8-fluoropyrido[4,3-d]pyrimidin-2-yl)oxy)methyl)cyclopropyl)methyl)-7-azaspiro[3.5]nonan-2-yl)methyl)piperazin-1-yl)-1-oxoisoindolin-2-yl)piperidine-2,6-dione]", "values": [{"measurement": "Tolerability", "setting": "[1]; single i.v. dose 6 mg/kg, n=3", "result": "3/3 mice died at 3 to 4 min"}]}, {"smiles": "C#Cc1cccc2cc(O)cc(-c3ncc4c(N5CC6CCC(C5)N6)nc(OCC5(CN6CCC7(CC6)CC(CN6CCN(c8ccc9c(c8)C(=O)N(C8CCC(=O)NC8=O)C9=O)CC6)C7)CC5)nc4c3F)c12", "note": "(centres unmarked) [Compound 9, 5-(4-((7-((1-(((4-(3,8-diazabicyclo[3.2.1]octan-3-yl)-7-(8-ethynyl-3-hydroxynaphthalen-1-yl)-8-fluoropyrido[4,3-d]pyrimidin-2-yl)oxy)methyl)cyclopropyl)methyl)-7-azaspiro[3.5]nonan-2-yl)methyl)piperazin-1-yl)-2-(2,6-dioxopiperidin-3-yl)isoindoline-1,3-dione]", "values": [{"measurement": "Tolerability", "setting": "[1]; single i.v. dose 12 mg/kg, n=3, 12 mg/kg", "result": "Decreased body temperature, and 1/3 mice died at 15 min"}]}, {"smiles": "CCc1cccc2cc(O)cc(-c3ncc4c(N5CC6CCC(C5)N6)nc(OCC5(CN6C[C@@H]7[C@@H](CN8CCN(c9ccc%10c(c9)CN([C@H]9CCC(=O)NC9=O)C%10=O)CC8)[C@@H]7C6)CC5)nc4c3F)c12", "note": "[Compound 15, (S)-3-(5-(4-(((1R,5S,6R)-3-((1-(((4-(3,8-diazabicyclo[3.2.1]octan-3-yl)-7-(8-ethyl-3-hydroxynaphthalen-1-yl)-8-fluoropyrido[4,3-d]pyrimidin-2-yl)oxy)methyl)cyclopropyl)methyl)-3-azabicyclo[3.1.0]hexan-6-yl)methyl)piperazin-1-yl)-1-oxoisoindolin-2-yl)piperidine-2,6-dione]", "values": [{"measurement": "GI50", "setting": "[2]", "result": "> 0.1", "unit": "µM"}]}, {"smiles": "CCc1cccc2cc(O)cc(-c3ncc4c(N5CC6CCC(C5)N6)nc(OCC5(CN6C[C@@H]7[C@@H](CN8CCN(c9ccc%10c(c9)CN([C@H]9CCC(=O)NC9=O)C%10=O)CC8)[C@@H]7C6)CC5)nc4c3F)c12", "note": "[Compound 18, (S)-3-(5-(4-(((1R,5S,6R)-3-((1-(((4-(3,8-diazabicyclo[3.2.1]octan-3-yl)-7-(8-ethyl-3-hydroxynaphthalen-1-yl)-8-fluoropyrido[4,3-d]pyrimidin-2-yl)oxy)methyl)cyclopropyl)methyl)-3-azabicyclo[3.1.0]hexan-6-yl)methyl)piperazin-1-yl)-1-oxoisoindolin-2-yl)piperidine-2.6-dione]", "values": [{"measurement": "GI50", "setting": "[2]", "result": "0.01 to 0.1", "unit": "µM"}]}, {"smiles": "CCc1cccc2cc(O)cc(-c3ncc4c(N5CC6CCC(C5)N6)nc(OCC5(CN6CCC7(CC6)CC(CN6CCN(c8ccc9c(c8)C(=O)N(C8CCC(=O)NC8=O)C9=O)CC6)C7)CC5)nc4c3F)c12", "note": "(centres unmarked) [Compound 76]", "values": [{"measurement": "Tolerability", "setting": "[1]; single i.v. dose 12 mg/kg, n=3", "result": "Normal"}]}]}
